Legend:
EGF-R (HER-1) = biological target: T1, EGF-R (HER-1) (Homo sapiens, UniProt P00533); experiment: Inhibition of EGF-R (HER-1) tyrosine kinase activity; format: biochemical; conditions: recombinant intracellular domain of the EGF-receptor
T1 construct: using the recombinant intracellular domain of the EGF-receptor [EGF-R ICD
Method: J. Biochem. 207, 265-275 (1992)]. Compared with the control without inhibitor, the compounds of formula I inhibit the enzyme activity by 50% (IC50), for example in a concentration of from 0.0005 to 0.5 μM, especially from 0.001 to 0.1 μM.
(§1) Inhibition of the tyrosine kinase Activity of EGF-R (HER-1), ErbB-2 (HER-2) and VEGF Receptor (KDR)
(§2) The inhibition tests are carried out as described above.

VEGF Receptor (KDR) = biological target: T2, VEGF Receptor (KDR) (Homo sapiens, UniProt P35968); experiment: Inhibition of VEGF receptor (KDR) tyrosine kinase activity; format: biochemical
T2 construct: as in the cited Wood et al. 2000 method
Method: The compounds of the present invention are therefore very effective dual inhibitors of EGF- and VEGF-receptor family members. For inhibition of KDR and Flt-1 and inhibition of growth factor-induced proliferation of HUVECS see J. Wood et al., Cancer Res. 60, 2178-2189 (2000). The compounds of formula I inhibit e.g. the KDR tyrosine kinase activity with an IC50 of from about 1 nM to about 1 μM, especially from about 5 nM to about 0.5 μM.
as §1, §2

ErbB-2 (HER-2) = ErbB-2 (HER-2) (Homo sapiens, UniProt P04626); experiment: Inhibition of ErbB-2 (HER-2) tyrosine kinase activity; format: biochemical
Method: The inhibitory activity (IC50) is approximately in the range of 0.001 to 0.5 μM. The inhibition of ErbB2 tyrosine kinase (HER-2) can be determined, for example, analogously to the method used for EGF-R protein tyrosine kinase [see C. House et al., Europ. J. Biochem. 140. 363-367 (1984)]. The ErbB-2 kinase can be isolated, and its activity determined, by means of protocols known per se, for example in accordance with T. Akiyama et al., Science 232 1644 (1986).
as §1, §2

Chain of ErbB-2 (HER-2) (P04626 23-1255): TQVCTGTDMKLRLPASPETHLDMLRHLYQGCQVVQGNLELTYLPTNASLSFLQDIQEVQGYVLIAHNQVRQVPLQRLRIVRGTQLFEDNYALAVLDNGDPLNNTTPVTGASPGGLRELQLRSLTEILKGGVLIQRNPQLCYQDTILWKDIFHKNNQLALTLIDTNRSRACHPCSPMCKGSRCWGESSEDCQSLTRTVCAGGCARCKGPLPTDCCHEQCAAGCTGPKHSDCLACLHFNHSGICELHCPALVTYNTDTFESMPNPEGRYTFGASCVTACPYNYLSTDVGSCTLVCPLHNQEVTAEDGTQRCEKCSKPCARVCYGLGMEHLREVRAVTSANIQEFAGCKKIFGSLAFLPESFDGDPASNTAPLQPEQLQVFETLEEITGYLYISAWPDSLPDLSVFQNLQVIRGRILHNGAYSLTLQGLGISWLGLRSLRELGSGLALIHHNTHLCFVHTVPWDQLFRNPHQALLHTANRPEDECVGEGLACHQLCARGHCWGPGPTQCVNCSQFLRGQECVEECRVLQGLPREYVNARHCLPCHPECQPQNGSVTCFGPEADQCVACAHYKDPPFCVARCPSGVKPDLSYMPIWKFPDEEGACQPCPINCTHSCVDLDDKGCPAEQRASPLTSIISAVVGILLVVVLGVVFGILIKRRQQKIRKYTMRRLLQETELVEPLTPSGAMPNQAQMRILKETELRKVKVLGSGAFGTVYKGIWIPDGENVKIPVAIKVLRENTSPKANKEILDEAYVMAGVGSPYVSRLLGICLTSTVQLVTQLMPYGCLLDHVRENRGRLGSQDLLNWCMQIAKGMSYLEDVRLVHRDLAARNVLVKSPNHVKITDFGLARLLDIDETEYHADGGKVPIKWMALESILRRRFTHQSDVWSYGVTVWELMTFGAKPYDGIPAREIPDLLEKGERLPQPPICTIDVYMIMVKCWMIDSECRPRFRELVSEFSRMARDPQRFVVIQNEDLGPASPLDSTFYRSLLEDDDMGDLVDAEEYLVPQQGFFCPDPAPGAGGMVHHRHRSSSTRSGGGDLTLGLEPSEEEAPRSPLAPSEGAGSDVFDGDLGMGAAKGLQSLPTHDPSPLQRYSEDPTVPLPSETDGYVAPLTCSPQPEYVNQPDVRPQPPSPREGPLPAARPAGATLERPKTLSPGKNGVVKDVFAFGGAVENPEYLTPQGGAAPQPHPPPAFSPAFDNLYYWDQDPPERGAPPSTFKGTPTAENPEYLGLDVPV
T1 sequence (P00533 669-1210 limits assumed): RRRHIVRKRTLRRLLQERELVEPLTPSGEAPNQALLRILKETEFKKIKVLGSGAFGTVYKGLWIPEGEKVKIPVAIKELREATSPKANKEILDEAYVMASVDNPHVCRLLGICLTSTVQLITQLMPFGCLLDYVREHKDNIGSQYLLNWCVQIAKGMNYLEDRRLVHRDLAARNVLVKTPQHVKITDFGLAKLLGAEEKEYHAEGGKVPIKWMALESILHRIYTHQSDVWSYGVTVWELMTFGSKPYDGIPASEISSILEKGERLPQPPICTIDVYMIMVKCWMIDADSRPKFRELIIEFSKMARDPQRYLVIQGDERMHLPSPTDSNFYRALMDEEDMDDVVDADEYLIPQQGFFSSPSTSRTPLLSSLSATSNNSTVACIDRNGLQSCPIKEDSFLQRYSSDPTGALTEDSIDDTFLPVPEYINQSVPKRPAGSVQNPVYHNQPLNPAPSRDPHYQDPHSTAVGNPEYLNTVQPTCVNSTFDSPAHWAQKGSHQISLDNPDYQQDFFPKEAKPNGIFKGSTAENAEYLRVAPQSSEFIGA
T2 sequence (P35968 834-1162 limits assumed): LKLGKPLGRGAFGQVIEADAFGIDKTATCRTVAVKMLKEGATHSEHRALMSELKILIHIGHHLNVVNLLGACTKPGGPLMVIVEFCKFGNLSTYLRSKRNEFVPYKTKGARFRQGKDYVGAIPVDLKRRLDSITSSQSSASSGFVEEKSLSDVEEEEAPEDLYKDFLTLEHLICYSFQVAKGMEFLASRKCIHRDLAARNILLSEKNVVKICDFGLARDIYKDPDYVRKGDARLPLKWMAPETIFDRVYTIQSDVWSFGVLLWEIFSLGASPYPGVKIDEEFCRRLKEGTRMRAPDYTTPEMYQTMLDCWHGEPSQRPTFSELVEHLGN

SMILES	melting point	IC50 (EGF-R (HER-1))	IC50 (VEGF Receptor (KDR))	IC50 (ErbB-2 (HER-2))
CN1CCN(c2ccc(Nc3nccc(-c4c[nH]nc4-c4ccc(Cl)cc4)n3)cc2)CC1 [Example 1, {4-[3-(4-Chloro-phenyl)1H-pyrazol-4yl]-pyrimidin-2-yl}-[4-(4-methyl-piperazin-1-yl)-phenyl]-amine]	282 to 284 °C	18 nM	10 nM	23 nM
CN(C)CCOc1ccc(Nc2nccc(-c3c[nH]nc3-c3ccc(Cl)cc3)n2)cc1 [Example 2, {4-[3-(4-Chloro-phenyl)-1H-pyrazol-4-yl]-pyrimidin-2-yl}-[4-(2-dimethyl-amino-ethoxy)-phenyl]-amine]		22 nM	21 nM	19 nM
Cc1cccc(-c2n[nH]cc2-c2ccnc(Nc3ccc(N4CCN(C)CC4)cc3)n2)c1 [Example 18, [4-(4-Methyl-piperazin-1yl)-phenyl]-[4-(3-m-tolyl-1H-pyrazol-4-yl)-pyrimidin-2-yl]-amine]		21 nM	4 nM	13 nM
Cc1cccc(-c2n[nH]cc2-c2ccnc(Nc3ccc(OCCN(C)C)cc3)n2)c1 [Example 20, [4-(2-Dimethylamino-ethoxy)-phenyl]-[4-(3-m-tolyl-1H-pyrazol-4-yl)-pyrimidin-2-yl]-amine]		27 nM	6 nM	15 nM
CN(C)CCOc1ccc(Nc2nccc(-c3c[nH]nc3-c3ccc(Cl)c(Cl)c3)n2)cc1 [Example 21, {4-[3-(3,4-Dichloro-phenyl)-1H-pyrazol-4-yl]-pyrimidin-2-yl}-[4-(2-dimethylamino-ethoxy)-phenyl]-amine]		29 nM	15 nM	16 nM
COc1cc(Nc2nccc(-c3c[nH]nc3-c3ccc4c(c3)OCO4)n2)cc(OC)c1OC [Example 46, [4-(3-Benzo[1,3]dioxol-5-yl-1H-pyrazol-4-yl)-pyrimidin-2-yl]-(3,4,5-trimethoxy-phenyl)-amine]		28 nM	3 nM	6 nM
Cc1ccc(-c2n[nH]cc2-c2ccnc(Nc3ccc(CN4CCN(C)CC4)cc3)n2)cc1 [Example 60, [4-(4-Methyl-piperazin-1-ylmethyl)-phenyl]-[4-(3-p-tolyl-1H-pyrazol-4-yl)-pyrimidin-2-yl]-amine]	250 °C	20 nM	10 nM	44 nM
CN1CCC(n2ncc(-c3ccnc(Nc4ccc(CN5CCN(C)CC5)cc4)n3)c2-c2ccc(Cl)cc2)CC1 [Example 81, {4-[5-(4-Chloro-phenyl)-1-(1-methyl-piperidin-4yl)-1H-pyrazol-4yl]-pyrimidin-2-yl}-[4-(4methyl-piperazin-1-ylmethyl)-phenyl]-amine]	180 °C			
Cc1ccc(-c2c(-c3ccnc(Nc4ccc(CN5CCN(C)CC5)cc4)n3)cnn2CCN(C)C)cc1 [Example 82, {4-[1-(2-Dimethylamino-ethyl)-5-p-tolyl-1H-pyrazol-4-yl]-pyrimidin-2-yl}-[4-(4 methyl-piperazin-1-ylmethyl)-phenyl]-amine]	123 °C			
Cc1ccc(-c2nn(CCN(C)C)cc2-c2ccnc(Nc3ccc(CN4CCN(C)CC4)cc3)n2)cc1 [Example 83, {4-[1-(2-Dimethylamino-ethyl)-3-p-tolyl-1H-pyrazol-4-yl]-pyrimidin-2-yl}-[4-(4-methyl-piperazin-1-ylmethyl)-phenyl]-amine]	62 °C			
Cc1ccc(-c2c(-c3ccnc(Nc4ccc(CN5CCN(C)CC5)cc4)n3)cnn2C2CCN(C)CC2)cc1 [Example 84, [4-(4-Methyl-piperazin-1-ylmethyl)-phenyl]-{4-[1-(1-methyl-piperidin-4-yl)-5-p-tolyl-1H-pyrazol-4-yl]-pyrimidin-2-yl}-amine]	187 °C			
Cc1ccc(-c2nn(C3CCN(C)CC3)cc2-c2ccnc(Nc3ccc(CN4CCN(C)CC4)cc3)n2)cc1 [Example 85, [4-(4-Methyl-piperazin-1-ylmethyl)-phenyl]-{4-[1-(1-methyl-piperidin-4-yl)-3-p-tolyl-1H-pyrazol-4-yl]-pyrimidin-2-yl}-amine]	174 °C			
CN1CCN(c2ccc(Nc3nccc(-c4cn(C)nc4-c4ccc(Cl)cc4)n3)cc2)CC1 [Example 91, {4-[3-(4-Chloro-phenyl)1-methyl-1H-pyrazol-4yl]-pyrimidin-2-yl}-[4-(4-methyl-piperazin-1-yl)-phenyl]-amine]		18 nM	28 nM	42 nM
CCN1CCN(Cc2ccc(Nc3nccc(-c4c[nH]nc4-c4ccc(C)cc4)n3)cc2)CC1 [Example 101, [4-(4-Ethyl-piperazin-1-ylmethyl)-phenyl]-[4-(3-p-tolyl-1H-pyrazol-4)-pyrimidin-2-yl]-amine]		13 nM	4 nM	28 nM
COc1cccc(Nc2nccc(-c3cn(CC4CCN(C)CC4)nc3-c3ccc(Cl)cc3)n2)c1 [Example 107, {4-[3-(4-Chloro-phenyl)-1-(1methyl-piperidin-4-ylmethyl)-1H-pyrazol-4-yl]-pyrimidin-2-yl}-(3-methoxy-phenyl)-amine]	65 °C			

Continued, values first:

melting point	IC50 (EGF-R (HER-1))	IC50 (VEGF Receptor (KDR))	IC50 (ErbB-2 (HER-2))	SMILES
180 °C				COc1cccc(Nc2nccc(-c3cnn(CC4CCN(C)CC4)c3-c3ccc(Cl)cc3)n2)c1 [Example 108, {4-[5-(4-Chloro-phenyl)-1-(1-methyl-piperidin-4-ylmethyl)-1H-pyrazol-4-yl]-pyrimidin-2-yl}-(3-methoxy-phenyl)-amine]
221 °C				CN1CCN(Cc2ccc(Nc3nccc(-c4c[nH]nc4-c4cccc(C(F)(F)F)c4)n3)cc2)CC1 [Example 110, [4-(4-Methyl-piperazin-1-ylmethyl)-phenyl]-{4-[3-(3-trifluoromethyl-phenyl)-1H-pyrazol-4yl]-pyrimidin-2-yl}-amine]
233 °C				Cc1ccc(-c2n[nH]cc2-c2ccnc(Nc3ccc(CN4CCN(CCO)CC4)cc3)n2)cc1 [Example 111, 2-(4-{4-[4-(3-p-Tolyl-1H-pyrazol-4yl)-pyrimidin-2-ylamino]-benzyl}piperazin-1-yl)-ethanol]
138 °C				CN1CCC(COc2cccc(Nc3nccc(-c4cn(C)nc4-c4ccc(Cl)cc4)n3)c2)CC1 [Example 112, {4-[3-(4-Chloro-phenyl)-1-methyl-1H-pyrazol-4-yl]-pyrimidin-2-yl}-[3-(1-methyl-piperidin-4-ylmethoxy)-phenyl]-amine]
257 °C				COc1cc(OC)cc(-c2n[nH]cc2-c2ccnc(Nc3cccc(S(N)(=O)=O)c3)n2)c1 [Example 113, 3-{4-[3-(3,5-Dimethoxy-phenyl)-1H-pyrazol-4-yl]-pyrimidin-2-ylamino}-benzenesulfonamide]
247 °C				CCN1CCN(Cc2ccc(Nc3nccc(-c4c[nH]nc4-c4ccc(Cl)cc4)n3)cc2)CC1 [Example 114, {4-[3-(4-Chloro-phenyl)-1H-pyrazol-4yl]-pyrimidin-2-yl}-[4-(4-ethyl-piperazin-1-ylmethyl)-phenyl]-amine]
227 °C				CCN1CCN(Cc2ccc(Nc3nccc(-c4c[nH]nc4-c4ccccc4)n3)cc2)CC1 [Example 115, [4-(4-Ethyl-piperazin-1-ylmethyl)-phenyl]-[4-(3-phenyl-1H-pyrazol-4-yl)-pyrimidin-2-yl]-amine]
88 °C				CCN1CCN(Cc2ccc(Nc3nccc(-c4cn(C)nc4-c4ccc(C)cc4)n3)cc2)CC1 [Example 117, [4-(4-Ethyl-piperazin-1-ylmethyl)-phenyl]-[4-(1-methyl-3-p-tolyl-1H-pyrazol-4-yl)-pyrimidin-2-yl]-amine]
82 °C				CCN1CCN(Cc2ccc(Nc3nccc(-c4cnn(C)c4-c4ccc(C)cc4)n3)cc2)CC1 [Example 118, [4-(4-Ethyl-piperazin-1-ylmethyl)-phenyl]-[4-(1-methyl-5-p-tolyl-1H-pyrazol-4-yl)-pyrimidin-2-yl]-amine]
213 °C				CC1(C)CC(NCc2ccc(Nc3nccc(-c4c[nH]nc4-c4ccccc4)n3)cc2)CC(C)(C)N1 [Example 120, [4(3-Phenyl-1H-pyrazol-4-yl)-pyrimidin-2-yl]-{4[(2,2,6,6-tetramethyl-piperidin-4-ylamino)-methyl]-phenyl}-amine]
268 °C				CCN1CCN(c2ccc(Nc3nccc(-c4c[nH]nc4-c4ccc(Cl)cc4)n3)cc2)CC1 [Example 121, {4-[3-(4-Chloro-phenyl)-1H-pyrazol-4yl]-pyrimidin-2-yl}-[4-(4-ethyl-piperazin-1-yl)-phenyl]-amine]
214 °C				Clc1ccc(-c2n[nH]cc2-c2ccnc(Nc3ccc(N4CCNCC4)cc3)n2)cc1 [Example 122, {4-[3-(4-Chloro-phenyl)-1H-pyrazol-4yl]-pyrimidin-2-yl}-(4piperazin-1-yl-phenyl)-amine]
	3 nM	5 nM	17 nM	Cc1ccc(-c2n[nH]cc2-c2ccnc(Nc3cccc(OCC4CCN(C)CC4)c3)n2)cc1 [Example 124, [3-(1-Methyl-piperidin-4-ylmethoxy)-phenyl]-[4-(3-p-tolyl-1H-pyrazol-4yl)-pyrimidin-2-yl]-amine]
